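How tested: cells in 96-well plates exposed to compound for 48 hours at five concentrations. The concentration for 50% growth inhibition is given as GI50. At the TGI there is no net growth.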
Columns and labels:
Assay in all cases: inhibition of tumour cell growth, NCI panel, 48 h
MALME-3M melanoma = tested on: MALME-3M melanoma
KM12 colon = tested on: KM12 colon
MCF7 breast = tested on: MCF7 breast
UO-31 renal = tested on: UO-31 renal
NCI-H522 lung = tested on: NCI-H522 lung
COLO 205 colon = tested on: COLO 205 colon
RPMI-8226 leukemia = tested on: RPMI-8226 leukemia
HT29 colon = tested on: HT29 colon
T-47D breast = tested on: T-47D breast
SF-539 CNS = tested on: SF-539 CNS
MOLT-4 leukemia = tested on: MOLT-4 leukemia
BT-549 breast = tested on: BT-549 breast
CAKI-1 renal = tested on: CAKI-1 renal
LOX IMVI melanoma = tested on: LOX IMVI melanoma
SK-OV-3 ovarian = tested on: SK-OV-3 ovarian
NCI-H226 lung = tested on: NCI-H226 lung
NCI-H23 lung = tested on: NCI-H23 lung
RXF 393 renal = tested on: RXF 393 renal
U251 CNS = tested on: U251 CNS
NCI/ADR-RES ovarian = tested on: NCI/ADR-RES ovarian
MDA-MB-435 = tested on: MDA-MB-435
A498 renal = tested on: A498 renal
SK-MEL-28 melanoma = tested on: SK-MEL-28 melanoma
HCT-15 colon = tested on: HCT-15 colon
CCRF-CEM leukemia = tested on: CCRF-CEM leukemia
OVCAR-4 ovarian = tested on: OVCAR-4 ovarian
SF-295 CNS = tested on: SF-295 CNS
SF-268 CNS = tested on: SF-268 CNS
SK-MEL-2 melanoma = tested on: SK-MEL-2 melanoma
IGROV1 ovarian = tested on: IGROV1 ovarian
TK-10 renal = tested on: TK-10 renal
OVCAR-3 ovarian = tested on: OVCAR-3 ovarian
HOP-62 NSCLC = tested on: HOP-62 NSCLC
SN12C renal = tested on: SN12C renal
HCT-116 colon = tested on: HCT-116 colon
K-562 leukemia = tested on: K-562 leukemia
EKVX NSCLC = tested on: EKVX NSCLC
SNB-19 CNS = tested on: SNB-19 CNS
NCI-H460 lung = tested on: NCI-H460 lung
UACC-257 melanoma = tested on: UACC-257 melanoma
HOP-92 NSCLC = tested on: HOP-92 NSCLC
OVCAR-8 ovarian = tested on: OVCAR-8 ovarian
MDA-MB-231 breast = tested on: MDA-MB-231 breast
A549 NSCLC = tested on: A549 NSCLC
OVCAR-5 ovarian = tested on: OVCAR-5 ovarian
SW-620 colon = tested on: SW-620 colon
SNB-75 CNS = tested on: SNB-75 CNS
ACHN renal = tested on: ACHN renal
M14 melanoma = tested on: M14 melanoma
UACC-62 melanoma = tested on: UACC-62 melanoma
SK-MEL-5 melanoma = tested on: SK-MEL-5 melanoma
PC-3 prostate = tested on: PC-3 prostate
786-0 renal = tested on: 786-0 renal
DU-145 prostate = tested on: DU-145 prostate
HCC-2998 colon = tested on: HCC-2998 colon
HL-60(TB) leukemia = tested on: HL-60(TB) leukemia

Which results are given for `N#Cc1c(-c2ccc(Cl)cc2)n(O)c2ccccc12`?
GI50 (MALME-3M melanoma): 1.88 µM; TGI (MALME-3M melanoma): 9.02 µM; GI50 (KM12 colon): 2.17 µM; TGI (KM12 colon): 11.7 µM; GI50 (MCF7 breast): 2.67 µM; TGI (MCF7 breast): > 100 µM; GI50 (UO-31 renal): 2.6 µM; TGI (UO-31 renal): 9.24 µM; GI50 (NCI-H522 lung): 2.11 µM; TGI (NCI-H522 lung): 6.32 µM; GI50 (COLO 205 colon): 13.4 µM; TGI (COLO 205 colon): 30.7 µM; GI50 (RPMI-8226 leukemia): 1.6 µM; TGI (RPMI-8226 leukemia): 6.48 µM; GI50 (HT29 colon): 4.84 µM; TGI (HT29 colon): 20.9 µM; GI50 (T-47D breast): 2.88 µM; TGI (T-47D breast): 11.1 µM; GI50 (SF-539 CNS): 2.58 µM; TGI (SF-539 CNS): 9.83 µM; GI50 (MOLT-4 leukemia): 3.61 µM; TGI (MOLT-4 leukemia): 15.5 µM; GI50 (BT-549 breast): 1.16 µM; TGI (BT-549 breast): 7.97 µM; GI50 (CAKI-1 renal): 1.95 µM; TGI (CAKI-1 renal): 5.2 µM; GI50 (LOX IMVI melanoma): 2.24 µM; TGI (LOX IMVI melanoma): 13.4 µM; GI50 (SK-OV-3 ovarian): 2.17 µM; TGI (SK-OV-3 ovarian): 5.16 µM; GI50 (NCI-H226 lung): 2.83 µM; TGI (NCI-H226 lung): 12 µM; GI50 (NCI-H23 lung): 2.02 µM; TGI (NCI-H23 lung): 6.9 µM; GI50 (RXF 393 renal): 1.8 µM; TGI (RXF 393 renal): 5.84 µM; GI50 (U251 CNS): 1.9 µM; TGI (U251 CNS): 7.06 µM; GI50 (NCI/ADR-RES ovarian): 1.43 µM; TGI (NCI/ADR-RES ovarian): 4.2 µM; GI50 (MDA-MB-435): 0.29 µM; TGI (MDA-MB-435): 1.26 µM; GI50 (A498 renal): 1.38 µM; TGI (A498 renal): 4.09 µM; GI50 (SK-MEL-28 melanoma): 1.42 µM; TGI (SK-MEL-28 melanoma): 26.4 µM; GI50 (HCT-15 colon): 1.8 µM; TGI (HCT-15 colon): 18.9 µM; GI50 (CCRF-CEM leukemia): 3.37 µM; TGI (CCRF-CEM leukemia): 23.2 µM; GI50 (OVCAR-4 ovarian): 3.01 µM; TGI (OVCAR-4 ovarian): > 100 µM; GI50 (SF-295 CNS): 2.33 µM; TGI (SF-295 CNS): 6.09 µM; GI50 (SF-268 CNS): 2.6 µM; TGI (SF-268 CNS): 25.5 µM; GI50 (SK-MEL-2 melanoma): 1.46 µM; TGI (SK-MEL-2 melanoma): 5.46 µM; GI50 (IGROV1 ovarian): 3.15 µM; TGI (IGROV1 ovarian): 8.52 µM; GI50 (TK-10 renal): 3.64 µM; TGI (TK-10 renal): 9.16 µM; GI50 (OVCAR-3 ovarian): 2.6 µM; TGI (OVCAR-3 ovarian): 6.39 µM; GI50 (HOP-62 NSCLC): 2.23 µM; TGI (HOP-62 NSCLC): 7.9 µM; GI50 (SN12C renal): 3.07 µM; TGI (SN12C renal): > 100 µM; GI50 (HCT-116 colon): 2.29 µM; TGI (HCT-116 colon): 8.69 µM; GI50 (K-562 leukemia): 0.949 µM; TGI (K-562 leukemia): > 100 µM; GI50 (EKVX NSCLC): 3.11 µM; TGI (EKVX NSCLC): 15.7 µM; GI50 (SNB-19 CNS): 2.71 µM; TGI (SNB-19 CNS): 80.4 µM; GI50 (NCI-H460 lung): 2.82 µM; TGI (NCI-H460 lung): > 100 µM; GI50 (UACC-257 melanoma): 2.27 µM; TGI (UACC-257 melanoma): 6.31 µM; GI50 (HOP-92 NSCLC): 1.02 µM; TGI (HOP-92 NSCLC): 3.5 µM; GI50 (OVCAR-8 ovarian): 2.65 µM; TGI (OVCAR-8 ovarian): 8.78 µM; GI50 (MDA-MB-231 breast): 1.51 µM; TGI (MDA-MB-231 breast): 4.38 µM; GI50 (A549 NSCLC): 2.6 µM; TGI (A549 NSCLC): 11.9 µM; GI50 (OVCAR-5 ovarian): 4.08 µM; TGI (OVCAR-5 ovarian): > 100 µM; GI50 (SW-620 colon): 0.996 µM; TGI (SW-620 colon): 13.2 µM; GI50 (SNB-75 CNS): 1.21 µM; TGI (SNB-75 CNS): 4.44 µM; GI50 (ACHN renal): 3.68 µM; TGI (ACHN renal): 91.2 µM; GI50 (M14 melanoma): 0.803 µM; TGI (M14 melanoma): 7.36 µM; GI50 (UACC-62 melanoma): 2.79 µM; TGI (UACC-62 melanoma): 12.3 µM; GI50 (SK-MEL-5 melanoma): 0.557 µM; TGI (SK-MEL-5 melanoma): 2.06 µM; GI50 (PC-3 prostate): 2.85 µM; TGI (PC-3 prostate): 20.2 µM; GI50 (786-0 renal): 2.24 µM; TGI (786-0 renal): 7.04 µM; GI50 (DU-145 prostate): 3.75 µM; TGI (DU-145 prostate): > 100 µM; GI50 (HCC-2998 colon): 3 µM; TGI (HCC-2998 colon): 8.01 µM; GI50 (HL-60(TB) leukemia): 1.76 µM; TGI (HL-60(TB) leukemia): 5.69 µM

Source: PubChem BioAssay (NCI)
